Source: ChEMBL document CHEMBL1159055, “Oxime carbamate--discovery of a series of novel FAAH inhibitors” (Bioorg Med Chem Lett, 2010)
Active and inactive are the calls of the source. The rule behind the calls is not given here.

The molecules below were run against T1, Fatty-acid amide hydrolase 1 (Homo sapiens, UniProt O00519) (assay: Inhibition of human FAAH expressed in human H4 cells).
T1 sequence (O00519 whole entry): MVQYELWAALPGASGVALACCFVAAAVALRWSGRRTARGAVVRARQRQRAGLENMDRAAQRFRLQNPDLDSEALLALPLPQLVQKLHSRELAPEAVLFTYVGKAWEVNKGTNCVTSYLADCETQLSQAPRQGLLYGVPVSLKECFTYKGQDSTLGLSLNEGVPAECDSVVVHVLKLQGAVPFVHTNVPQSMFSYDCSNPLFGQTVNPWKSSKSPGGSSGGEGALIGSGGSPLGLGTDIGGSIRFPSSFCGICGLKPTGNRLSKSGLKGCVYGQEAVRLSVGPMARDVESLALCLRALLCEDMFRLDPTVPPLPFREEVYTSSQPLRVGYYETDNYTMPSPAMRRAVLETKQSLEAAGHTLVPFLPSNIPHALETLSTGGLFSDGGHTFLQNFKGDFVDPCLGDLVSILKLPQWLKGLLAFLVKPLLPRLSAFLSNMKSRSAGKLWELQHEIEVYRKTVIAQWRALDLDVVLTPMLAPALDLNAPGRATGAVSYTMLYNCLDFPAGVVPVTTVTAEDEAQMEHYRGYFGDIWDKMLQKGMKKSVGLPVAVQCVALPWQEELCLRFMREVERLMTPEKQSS
Assay type: cell-based

SMILES	IC50 [nM]
CCCCCCCOc1ccc(NC(=O)Oc2ccccc2F)cc1	28
CCCCCCCCOc1ccc(NC(=O)Oc2ccccc2)cc1	5.4
CCCCOc1ccc(NC(=O)O/N=C/c2ccc(F)cc2)cc1	2.2
Cc1nc(-c2ccccc2)c(-c2ccccc2)n1CCCCCCNC(=O)Oc1ccccc1F	1.7
CCCCCCCOc1ccc(NC(=O)O/N=C/c2ccc(F)cc2)cc1	2.3
CCCCCCOc1ccc(NC(=O)O/N=C/c2ccccc2)cc1	8
CCCCCCCCCCCCOc1ccc(NC(=O)O/N=C/c2ccc(F)cc2)cc1	2.1
CCCCOc1ccc(C(CC)NC(=O)Oc2ccc(F)cc2F)cc1 (stereo not drawn)	21
CCCCCCCCCOc1ccc(NC(=O)ON=C(C)C)cc1	2.1
CCCCOc1ccc(NC(=O)O/N=C/c2cccnc2)cc1	14
CCCOc1ccc(NC(=O)O/N=C/c2cccnc2)cc1	29
CCCCCCCCCOc1ccc(NC(=O)O/N=C/c2cccnc2)cc1	0.65
CCCCCCCCCCCOc1ccc(NC(=O)Oc2ccccc2)cc1	1
CCCCCCCCOc1ccc(NC(=O)O/N=C/c2cccnc2)cc1	0.8
CCCCCCOc1ccc(NC(=O)Oc2ccccc2)cc1	31
CCCCOc1ccc(CNC(=O)ON=C(C)C)cc1	570
CCCCOc1ccc(NC(=O)Oc2ccccc2F)cc1	340
CCCCCCCCCCCCOc1ccc(NC(=O)Oc2ccccc2)cc1	1.8
CCCCCCCCCCOc1ccc(NC(=O)O/N=C/c2cccnc2)cc1	0.35
O=C(Nc1ccc(Oc2ccccc2)cc1)Oc1ccccc1F	1300
CCCCCCCCCCOc1ccc(NC(=O)Oc2ccccc2)cc1	1.4
CCCCOc1ccc(NC(=O)O/N=C/c2ccccc2)cc1	8.5
COc1ccc(NC(=O)O/N=C/c2ccccc2)cc1	290
CCCCCCCCCCCOc1ccc(NC(=O)O/N=C/c2cccnc2)cc1	0.15
CCCCCCCCOc1ccc(NC(=O)O/N=C/c2ccc(F)cc2)cc1	0.27
CCOc1ccc(NC(=O)O/N=C/c2cccnc2)cc1	150

SMILES	IC50 [nM]
CCCCOc1ccc(NC(=O)ON=C(C)C)cc1OC	11000
CCCCOc1cccc(NC(=O)ON=C(C)C)c1	6300
CCCCOc1ccc(C(CC)NC(=O)Oc2ccccc2)cc1 (stereo not drawn)	12
CCCCOc1ccc(CNC(=O)Oc2ccc(F)cc2F)cc1	8.7
CCCCOc1ccc(C(CC)NC(=O)Oc2ccc(OC)cc2)cc1 (stereo not drawn)	12
CCCCCCCCCCCOc1ccc(NC(=O)ON=C(C)C)cc1	4.9
CCCCCCCOc1ccc(NC(=O)O/N=C/c2ccccc2)cc1	8.6
CCCCOc1ccc(C(CC)NC(=O)Oc2cccc(N(C)C)c2)cc1 (stereo not drawn)	54
CCCCCOc1ccc(NC(=O)O/N=C/c2ccccc2)cc1	3.5
CCCCCOc1ccc(NC(=O)O/N=C/c2cccnc2)cc1	6.1
CCCCOc1ccc(C(CC)NC(=O)Oc2ccccc2F)cc1 (stereo not drawn)	7.7
CCOc1ccc(NC(=O)ON=C(C)C)cc1	730
CCCCCCCOc1ccc(NC(=O)ON=C(C)C)cc1	8.4
CCCCCOc1ccc(NC(=O)ON=C(C)C)cc1	28
CCOc1ccc(NC(=O)O/N=C/c2ccccc2)cc1	81
CCCCCCCCOc1ccc(NC(=O)ON=C(C)C)cc1	2.4
CCCCCCCCCCCCOc1ccc(NC(=O)Oc2ccccc2F)cc1	13
CCCCCCCCCCCCOc1ccc(NC(=O)O/N=C/c2cccnc2)cc1	0.35
CCCCCCCCOc1ccc(NC(=O)Oc2ccccc2F)cc1	19
CCCCCCCCCOc1ccc(NC(=O)O/N=C/c2ccc(F)cc2)cc1	0.2
CCCCOc1ccc(C(CC)NC(=O)Oc2ccc(F)cc2)cc1 (stereo not drawn)	12
CCCCOc1ccc(NC(=O)ON=C(C)C)cc1	28
CCCCCCCCCCOc1ccc(NC(=O)O/N=C/c2ccc(F)cc2)cc1	0.25
CCCCCCCCCCCOc1ccc(NC(=O)Oc2ccccc2F)cc1	15
CCc1ccc(-c2ccc(NC(=O)Oc3ccccc3F)cc2)cc1	810
CCCCCCOc1ccc(NC(=O)O/N=C/c2ccc(F)cc2)cc1	6.5

SMILES	IC50 [nM]
CCCOc1ccc(NC(=O)O/N=C/c2ccccc2)cc1	9.3
CCCCCCCCCCOc1ccc(NC(=O)Oc2ccccc2F)cc1	9.2
CCCCCCCCCCCCOc1ccc(NC(=O)O/N=C/c2ccccc2)cc1	2.4
CCCCOc1ccc(CNC(=O)Oc2ccc(F)cc2)cc1	4.6
CCCCCCCCCCOc1ccc(NC(=O)ON=C(C)C)cc1	2.2
CCCCCCCOc1ccc(NC(=O)O/N=C/c2cccnc2)cc1	2.3
CCCCCCCOc1ccc(NC(=O)Oc2ccccc2)cc1	8.6
CCCCCCCCCOc1ccc(NC(=O)O/N=C/c2ccccc2)cc1	0.25
CCCCCCCCOc1ccc(NC(=O)O/N=C/c2ccccc2)cc1	0.43
CCCCOc1ccc(CNC(=O)Oc2cccnc2)cc1	6.1
CCCCCCCCCCOc1ccc(NC(=O)O/N=C/c2ccccc2)cc1	0.35
CCCCCCOc1ccc(NC(=O)Oc2ccccc2F)cc1	710
CCCCOc1ccc(CNC(=O)Oc2ccccc2F)cc1	9.2
CCCOc1ccc(NC(=O)ON=C(C)C)cc1	210
CCCOc1ccc(NC(=O)O/N=C/c2ccc(F)cc2)cc1	13
CCCCCCCCCCCOc1ccc(NC(=O)O/N=C/c2ccc(F)cc2)cc1	0.4
CCCCOc1ccc(NC(=O)Oc2ccc(F)cc2)cc1	120
CCCCCCCCCCCCOc1ccc(NC(=O)ON=C(C)C)cc1	5
CCCCCCOc1ccc(NC(=O)ON=C(C)C)cc1	18
CCCCOc1ccc(CNC(=O)Oc2cccc(C(F)(F)F)c2)cc1	40
CCCCCOc1ccc(NC(=O)O/N=C/c2ccc(F)cc2)cc1	1.8
CCOc1ccc(NC(=O)O/N=C/c2ccc(F)cc2)cc1	46
CCCCCCCCCCCOc1ccc(NC(=O)O/N=C/c2ccccc2)cc1	0.45
CCCCCCOc1ccc(NC(=O)O/N=C/c2cccnc2)cc1	8.3
CCCCOc1ccc(C(CC)NC(=O)Oc2cccc(C(F)(F)F)c2)cc1 (stereo not drawn)	51
CCCCOc1ccc(CNC(=O)Oc2cccc(Cl)c2)cc1	12

Each molecule was assayed against T1, Fatty-acid amide hydrolase 1 (assay: Competitive inhibition of human FAAH expressed in human H4 cells).
Assay type: cell-based

SMILES	Ki [nM]
CCCCOc1ccc(NC(=O)O/N=C/c2ccc(F)cc2)cc1	30

What follows are molecules tested on Rattus norvegicus (assay: Antinociceptive activity in Sprague-Dawley rat assessed inhibition of thermal stimulus-induced hind paw withdrawal at 1 mg/kg, iv after 32 mins).
Assay type: functional, organism-based
Parameters: dose 1 mg/kg

SMILES	Activity
CCCCOc1ccc(NC(=O)O/N=C/c2ccc(F)cc2)cc1	inactive

The molecules below were run on Rattus norvegicus (assay: Antinociceptive activity in iv dosed Sprague-Dawley rat assessed inhibition of thermal stimulus-induced hind paw withdrawal after 32 mins in presence of anandamide).
Assay type: functional, organism-based

SMILES	Activity
CCCCOc1ccc(NC(=O)O/N=C/c2ccc(F)cc2)cc1	Dose-dependent effect

What follows are molecules tested on Rattus norvegicus (assay: Antinociceptive activity in Sprague-Dawley rat assessed inhibition of thermal stimulus-induced hind paw withdrawal at 10 mg/kg, iv after 32 mins).
Assay type: functional, organism-based
Parameters: dose 10 mg/kg

SMILES	Activity
CCCCOc1ccc(NC(=O)O/N=C/c2ccc(F)cc2)cc1	inactive

The molecules below were run against T2, Fatty-acid amide hydrolase 1 (Homo sapiens) (UniProt O00519) (assay: Inhibition of human FAAH-mediated anandamide hydrolysis expressed in human H4 cells assessed as reduction in initial reaction rate at 5 nM by fluorescence assay relative to vehicle control).
T2 sequence (whole entry): T1 sequence (O00519 whole entry)
Assay type: cell-based
Parameters: scale not given: the % may be the effect or the level left

SMILES	Activity [%]
CCCCOc1ccc(NC(=O)O/N=C/c2ccc(F)cc2)cc1	25
